Data: patent US20070149446A1, “Tamandarin analogs and fragments thereof and methods of making and using” (The Trustees of the University of Pennsylvania Center for …, priority 2003, published 2007)
Starred links: 1 amine or outer side, 2 acyl side, 3 side chain; linkers in the order of their positions; H or OH if unused. Positions of bridges follow the written chain, without caps; N, C: chain ends. Non-standard residues stand in square brackets, D forms with d. Residues, ends and D or L forms follow the SMILES beside them. Hexanoyl(3S-OH,4R-NH2,5-Me) = CC(C)[C@@H](N[*:1])[C@@H](O)CC(=O)[*:2]; NMe2Nal = CN[C@@H](Cc1ccc2ccccc2c1)C(=O)O; NMeY = CN[C@@H](Cc1ccc(O)cc1)C(=O)O; dNMeL = CN[C@H](CC(C)C)C(=O)O; Hiv = CC(C)[C@H](O)C(=O)O; Lac = C[C@H](O)C(=O)O

What was measured:
SK-BR3 = experiment: SRB colorimetric cell growth inhibition assay, SK-BR3; settings: for GI50 / CC50: Homo sapiens, SK-BR-3, 48 h; for CC50: read-out: LC50; for TGI: SK-BR3 cells, total growth inhibition, SRB, 48 hours exposure
Procedure: (§1) This form of assay employs 96 well cell culture microplates of […] diameter (Faircloth, 1988; Mosmann, 1983). Most of the cell lines are obtained from American Type Culture Collection (ATCC) derived from different human cancer types.
(§2) Cells are maintained in RPMI 1640 10% FBS, supplemented with 0.1 g/l penicillin and 0.1 g/l streptomycin sulfate and then incubated at 37° C., 5% CO2 and 98% humidity. For the experiments, cells were harvested from subconfluent cultures using trypsin and resuspended in fresh medium before plating.
(§3) Cells are seeded in 96 well microtiter plates, at 5×10^3 cells per well in aliquots of 195 μl medium, and they are allowed to attach to the plate surface by growing in drug free medium for 18 hours. Afterward, samples are added in aliquots of 5 μl in a ranging from 10 to 10-8 μg/ml, dissolved in DMSO/EtOH/PBS (0.5:0.5:99). After 48 hours exposure, the antitumor effect are measured by the SRB methodology: cells are fixed by adding 50 μl of cold 50% (wt/vol) trichloroacetic acid (TCA) and incubated for 60 minutes at 4° C.
(§4) Plates are washed with deionised water and dried. One hundred μl of SRB solution (0.4% wt/vol in 1% acetic acid) is added to each microtiter well and incubated for 10 minutes at room temperature. Unbound SRB is removed by washing with 1% acetic acid. Plates are air dried and bound stain is solubilized with Tris buffer. Optical densities are read on a automated spectrophotometric plate reader at a single wavelength of 490 nm.
(§5) The values for mean+/−SD of data from triplicate wells are calculated.
(§6) Some parameters for cellular responses can be calculated: GI=growth inhibition, TGI=total growth inhibition (cytostatic effect) and LC=cell killing (cytotoxic effect).

IGROV-ET = experiment: SRB colorimetric cell growth inhibition assay, IGROV-ET; settings: for GI50 / CC50: Homo sapiens, 48 h; for CC50: read-out: LC50; for TGI: IGROV-ET cells, total growth inhibition, SRB, 48 hours exposure
Procedure: as §1, §2, §3, §4, §5, §6

K562 = experiment: SRB colorimetric cell growth inhibition assay, K562; settings: for GI50 / CC50: Homo sapiens, K562, 48 h; for CC50: read-out: LC50; for TGI: K562 cells, total growth inhibition, SRB, 48 hours exposure
Procedure: as §1, §2, §3, §4, §5, §6

LN-caP = experiment: SRB colorimetric cell growth inhibition assay, LN-caP; settings: for GI50 / CC50: Homo sapiens, LNCaP, 48 h; for CC50: read-out: LC50; for TGI: LN-caP cells, total growth inhibition, SRB, 48 hours exposure
Procedure: as §1, §2, §3, §4, §5, §6

A549 = experiment: SRB colorimetric cell growth inhibition assay, A549; settings: for TGI: A549 cells, total growth inhibition, SRB, 48 hours exposure; for GI50 / CC50: Homo sapiens, A549, 48 h; for CC50: read-out: LC50
Procedure: as §1, §2, §3, §4, §5, §6

SK-MEL-28 = experiment: SRB colorimetric cell growth inhibition assay, SK-MEL-28; settings: for GI50 / CC50: Homo sapiens, SK-MEL-28, 48 h; for CC50: read-out: LC50; for TGI: SK-MEL-28 cells, total growth inhibition, SRB, 48 hours exposure
Procedure: as §1, §2, §3, §4, §5, §6

HELA = experiment: SRB colorimetric cell growth inhibition assay, HELA; settings: for TGI: HELA cells, total growth inhibition, SRB, 48 hours exposure; for GI50 / CC50: Homo sapiens, HeLa, 48 h; for CC50: read-out: LC50
Procedure: as §1, §2, §3, §4, §5, §6

LOVO = experiment: SRB colorimetric cell growth inhibition assay, LOVO; settings: for GI50 / CC50: Homo sapiens, LoVo, 48 h; for CC50: read-out: LC50; for TGI: LOVO cells, total growth inhibition, SRB, 48 hours exposure
Procedure: as §1, §2, §3, §4, §5, §6

LOVO-DOX = experiment: SRB colorimetric cell growth inhibition assay, LOVO-DOX; settings: for GI50 / CC50: Homo sapiens, 48 h; for CC50: read-out: LC50; for TGI: LOVO-DOX cells, total growth inhibition, SRB, 48 hours exposure
Procedure: as §1, §2, §3, §4, §5, §6

IGROV = experiment: SRB colorimetric cell growth inhibition assay, IGROV; settings: for GI50 / CC50: Homo sapiens, IGROV, 48 h; for CC50: read-out: LC50; for TGI: IGROV cells, total growth inhibition, SRB, 48 hours exposure
Procedure: as §1, §2, §3, §4, §5, §6

HELA-APL = experiment: SRB colorimetric cell growth inhibition assay, HELA-APL; settings: for TGI: HELA-APL cells, total growth inhibition, SRB, 48 hours exposure; for GI50 / CC50: Homo sapiens, 48 h; for CC50: read-out: LC50
Procedure: as §1, §2, §3, §4, §5, §6

DU145 = experiment: SRB colorimetric cell growth inhibition assay, DU145; settings: for TGI: DU145 cells, total growth inhibition, SRB, 48 hours exposure; for GI50 / CC50: Homo sapiens, DU-145, 48 h; for CC50: read-out: LC50
Procedure: as §1, §2, §3, §4, §5, §6

PANC1 = experiment: SRB colorimetric cell growth inhibition assay, PANC1; settings: for GI50 / CC50: Homo sapiens, PANC-1, 48 h; for CC50: read-out: LC50; for TGI: PANC1 cells, total growth inhibition, SRB, 48 hours exposure
Procedure: as §1, §2, §3, §4, §5, §6

HT29 = experiment: SRB colorimetric cell growth inhibition assay, HT29; settings: for TGI: HT29 cells, total growth inhibition, SRB, 48 hours exposure; for GI50 / CC50: Homo sapiens, HT-29, 48 h; for CC50: read-out: LC50
Procedure: as §1, §2, §3, §4, §5, §6

## COc1ccc(C[C@H]2C(=O)O[C@H](C)[C@H](NC(=O)[C@@H](CC(C)C)N(C)C(=O)[C@@H]3CCCN3C(=O)[C@H](C)O)C(=O)N[C@H](C(C)C)[C@@H](O)CC(=O)O[C@@H](C(C)C)C(=O)N[C@@H](CC(C)C)C(=O)N[C@@H](C)C(=O)N2C)cc1 [Compound 75, [N-Ala^4]-Tamandarin B] (H-[Lac]P[dNMeL]T[Hexanoyl(3S-OH,4R-NH2,5-Me)][Hiv]LA[NMeY](Me); ester 4-C)
SK-BR3
  GI50: 789 nM
  CC50: ≥ 9840 nM
  TGI: 3.39E−06 Molar
IGROV-ET
  GI50: 6860 nM
  CC50: ≥ 9840 nM
  TGI: 9.84E−06 Molar
K562
  GI50: 5870 nM
  CC50: ≥ 9840 nM
  TGI: 9.46E−06 Molar
LN-caP
  GI50: 548 nM
  CC50: ≥ 9840 nM
  TGI: 2.97E−06 Molar
A549
  TGI: 9.84E−06 Molar
  GI50: 5850 nM
  CC50: ≥ 9840 nM
SK-MEL-28
  GI50: 1500 nM
  CC50: 8000 nM
  TGI: 3.46E−06 Molar
HELA
  TGI: 3.60E−06 Molar
  GI50: 1180 nM
  CC50: ≥ 9840 nM
LOVO
  GI50: 3550 nM
  CC50: ≥ 9840 nM
  TGI: 9.84E−06 Molar
LOVO-DOX
  GI50: ≥ 9840 nM
  CC50: ≥ 9840 nM
  TGI: 9.84E−06 Molar
IGROV
  GI50: 1990 nM
  CC50: ≥ 9840 nM
  TGI: 5.29E−06 Molar
HELA-APL
  TGI: 9.84E−06 Molar
  GI50: ≥ 9840 nM
  CC50: ≥ 9840 nM
DU145
  TGI: 4.95E−06 Molar
  GI50: 1810 nM
  CC50: ≥ 9840 nM
PANC1
  GI50: 3750 nM
  CC50: ≥ 9840 nM
  TGI: 9.84E−06 Molar
HT29
  TGI: 9.84E−06 Molar
  GI50: 4220 nM
  CC50: ≥ 9840 nM

## CC(C)C[C@@H]1NC(=O)[C@H](C(C)C)OC(=O)C[C@H](O)[C@@H](C(C)C)NC(=O)[C@@H](NC(=O)[C@@H](CC(C)C)N(C)C(=O)[C@@H]2CCCN2C(=O)[C@H](C)O)[C@@H](C)OC(=O)[C@H](Cc2ccc3ccccc3c2)N(C)C(=O)[C@@H]2CCCN2C1=O [Compound 93, [2-Naphthylala^5]-Tamandarin B] (H-[Lac]P[dNMeL]T[Hexanoyl(3S-OH,4R-NH2,5-Me)][Hiv]LP[NMe2Nal]; ester 4-C)
SK-BR3
  GI50: 1.83 nM
  CC50: 4650 nM
  TGI: 1.89E−08 Molar
IGROV-ET
  GI50: 159 nM
  CC50: 2810 nM
  TGI: 6.54E−07 Molar
K562
  GI50: 20 nM
  CC50: 198 nM
  TGI: 4.73E−08 Molar
LN-caP
  GI50: 1.98 nM
  CC50: 9.7 nM
  TGI: 4.33E−09 Molar
A549
  TGI: 4.86E−08 Molar
  GI50: 6.96 nM
  CC50: 595 nM
SK-MEL-28
  GI50: 4.14 nM
  CC50: 87.9 nM
  TGI: 1.52E−08 Molar
HELA
  TGI: 9.79E−09 Molar
  GI50: 2.81 nM
  CC50: 54.9 nM
LOVO
  GI50: 6.84 nM
  CC50: 2490 nM
  TGI: 4.27E−08 Molar
LOVO-DOX
  GI50: 429 nM
  CC50: 9410 nM
  TGI: 2.33E−06 Molar
IGROV
  GI50: 2.09 nM
  CC50: 666 nM
  TGI: 1.28E−08 Molar
HELA-APL
  TGI: 1.68E−07 Molar
  GI50: 36.4 nM
  CC50: 2280 nM
DU145
  TGI: 4.39E−09 Molar
  GI50: 2.17 nM
  CC50: 8.83 nM
PANC1
  GI50: 6.24 nM
  CC50: 9410 nM
  TGI: 9.00E−08 Molar
HT29
  TGI: 6.98E−08 Molar
  GI50: 4.6 nM
  CC50: 5580 nM

## COc1ccc(C[C@H]2C(=O)OC[C@H](NC(=O)[C@@H](CC(C)C)N(C)C(=O)[C@@H]3CCCN3C(=O)[C@H](C)O)C(=O)N[C@H](C(C)C)[C@@H](O)CC(=O)O[C@@H](C(C)C)C(=O)N[C@@H](CC(C)C)C(=O)N3CCC[C@H]3C(=O)N2C)cc1 [Compound 62, [N-Ser^6]-Tamandarin B] (H-[Lac]P[dNMeL]S[Hexanoyl(3S-OH,4R-NH2,5-Me)][Hiv]LP[NMeY](Me); ester 4-C)
SK-BR3
  GI50: 3.74 nM
  CC50: ≥ 9730 nM
  TGI: 4.05E−08 Molar
IGROV-ET
  GI50: 456 nM
  CC50: 6950 nM
  TGI: 1.90E−06 Molar
K562
  GI50: 78 nM
  CC50: 2390 nM
  TGI: 3.03E−07 Molar
LN-caP
  GI50: 2.71 nM
  CC50: 58.4 nM
  TGI: 7.24E−09 Molar
A549
  TGI: 3.51E−07 Molar
  GI50: 51.5 nM
  CC50: 2900 nM
SK-MEL-28
  GI50: 16.6 nM
  CC50: 675 nM
  TGI: 8.24E−08 Molar
HELA
  TGI: 2.61E−08 Molar
  GI50: 3.76 nM
  CC50: 368 nM
LOVO
  GI50: 38.9 nM
  CC50: 3660 nM
  TGI: 2.31E−07 Molar
LOVO-DOX
  GI50: 2390 nM
  CC50: ≥ 9730 nM
  TGI: 8.40E−06 Molar
IGROV
  GI50: 1990 nM
  CC50: 9840 nM
  TGI: 5.29E−06 Molar
HELA-APL
  TGI: 5.41E−06 Molar
  GI50: 411 nM
  CC50: ≥ 9730 nM
DU145
  TGI: 2.49E−08 Molar
  GI50: 6.79 nM
  CC50: 82.6 nM
PANC1
  GI50: 34.9 nM
  CC50: ≥ 9730 nM
  TGI: 8.82E−07 Molar
HT29
  TGI: 2.03E−07 Molar
  GI50: 23.7 nM
  CC50: ≥ 9730 nM
